Read-outs that look alike come from different tables or passages of the source.
Experiments:
albino Wistar rats = assay: Acute toxicity study (OECD 423); type: in vivo; conditions: oral, 15 days, 5, 10, and 15 mg/kg; for Toxic effect: histology of lung, liver, kidney
Description: It is necessary to investigate the safety and efficacy of the synthesized compounds in vivo, which was performed as per the guidelines of the Organization for Economic Cooperation and Development guidelines 423 (OECD 423). The synthesized compounds were orally administered at doses of 5, 10, and 15 mg/kg body weight to albino Wistar rats for 15 days (n = 5), and the animals were observed every day for any toxic signs at various doses. Morphological and oxidative stress parameters were used to determine dose-related toxicity.

[1] = system: Human Lung Cancer Cell Line A-549; assay: In-vitro cell cytotoxicity (SRB) assay; type: cell-based
Description: To determine the cytotoxicity potential of the synthesized compounds. All samples were sent to the ACTREC, Tata Memorial Centre, Mumbai, India. They followed the standard protocol for sample analysis of the synthesized compounds. Adriamycin (ADR) was selected as a standard at 10, 20, 40, and 80 µg/mL to screen for indeno [1, 2-d] thiazolo [3,2-a] pyrimidine analogues. GI50 growth inhibition of 50% was calculated using the [(Ti − Tz)/(C − Tz)] ×100% formula, where C, controlled growth; Tz, time zero growth; and Ti, test growth at four concentration levels in the presence of the drug.
LC50 = Concentration of drug causing 50% cell kill
TGI = Concentration of drug causing total inhibition of cell growth
GI50 = Concentration of drug causing 50% inhibition of cell growth

[2] = system: ethyl-carbamate (EC)- induced LC; assay: In-vivo antineoplastic study, EC-induced lung carcinoma (weight, lipid profile, oxidative markers, histopathology, SEM); parameters: species or system albino Wistar rats; conditions: EC-induced LC rats; for Histopathological analysis of lung tissue (H&E): 10 mg/kg for 15 days; for Weight variation (change in body weight): 10 mg/kg for 15 days (9B, 12B p.o.; 5-FU i.p.); for Serum lipid profile (TC, TG, LDL, VLDL, HDL) / Oxidative changes (SOD, GSH, ProC, TBARs): 10 mg/kg p.o. for 15 days; for Oxidative changes (SOD, GSH, ProC, TBARs): lung tissue homogenate
Description: (§1) Six-week-old experimental male albino Wistar rats (100–120 g) were procured from the animal house facility of Babu Banarasi Das Northern India Institute of Technology Lucknow and approved by the Institutional Animal Ethical Committee (CPCSEA No. 809/PO/Re/S/03/CPCSEA) with approval no. BBDNIIT/IAEC/APR/2022/06. The animal welfare protocol and experiments were performed as per the CPCSEA guidelines for laboratory animals and ethics, Department of Animal Welfare, Government of India. They were randomly distributed into five groups of eight animals each. The experimental rats were acclimated under standard research laboratory conditions with free access to standard rat chow and water ad libitum. Group 1 (NC, normal control group): 0.25% CMC (2 mL/kg, p. o.), Group 2 (CC, carcinogen control/EC-exposed group): EC (0.375 mg/kg, four i.p. injections within a gap of three weeks between each dose over twelve weeks period), Group 3 (PC, positive control group): EC + 5-FU (10 mg/kg, i.p. for 15 days after EC induced LC), Group 4 (9B): EC + Compound 9B (10 mg/kg, p.o. for 15 days after EC induced LC), and Group 5 (12B): EC + Compound 12B (10 mg/kg, p.o. for 15 days after the induction of LC). At the end of the treatment, the animals were euthanized by cervical decapitation after anesthesia using a combination of diazepam and ketamine hydrochloride (5 mg/kg, and 100 mg/kg, i.m. respectively). The lung was excised immediately, rinsed in ice-cold saline, and stored at -80 °C for further study. Serum was collected and stored for further analysis.
Change in body weight (gm) was measured on the initial and final day of the experiment, and percent (%) weight gain/loss was calculated.
Serum total cholesterol (TC), triglycerides (TG), and high-density lipoprotein (HDL) levels were measured by using lipid profile kits (Agappe Diagnostic Ltd., Kerala, India). In brief, the assay was performed according to the manufacturer’s instructions. Low-density lipoprotein (LDL) and very-low-density lipoprotein (VLDL) levels were estimated and calculated using Friedewald’s formula [24].
Biochemical parameters such as protein carbonyl (PC), superoxide dismutase (SOD), glutathione (GSH), and thiobarbituric acid reactive substances (TBARs) were estimated in 10% lung tissue homogenate using our previously standardized laboratory protocols.
Histopathological studies were conducted to determine intracellular changes in lung tissue. Tissue samples were stained with H&E (haemotoxyline and eosin) using a methodology established previously at our laboratory for histological analysis and observed under an optical microscope (Steindroff N-120, 40X).
Lung tissue samples of 2–4 mm thickness were sectioned, and the samples were prepared by fixation, washing, post-fixation, and dehydration according to the standardized procedures of our laboratory. Finally, the samples were mounted on aluminium stubs with adhesive tape and examined for morphological changes using SEM (JEOL JSM-6490LV).

[3] = system: IL-2, IL-6, IL-10, and IL-1β; assay: Cytokine estimation (ELISA) in EC-induced LC rats; type: in vivo, albino Wistar rats; conditions: 10 mg/kg p.o. for 15 days, vs CC group
Description: as §1, with “The lung was excised immediately, rinsed in ice-cold saline, and stored at -80 °C for further study. Serum was collected and stored for further analysis.” left out

[4] = Pharmacokinetic study in rat plasma using HPLC; type: in vivo, albino Wistar rats; conditions: 10 mg/kg p.o.; for AUC(0-inf) / Cmax / MRT / Tmax / half-life: Wistar, po; for AUC(0-inf) / Cmax / MRT / Tmax / half-life / AUMC: rat plasma
Description: 9B and 12B compounds were orally administered at 10 mg/kg (p.o. dose obtained from acute toxicity studies) to rats, and blood was collected from the latetal tail vein at 0.083, 0.25, 0.5, 1, 2, 4, 8, 12, 16, 24, and 48 h. After collection, blood was centrifuged and plasma was separated, which was kept at -20 °C for further HPLC determination. Chromatographic separations were performed using a Shimadzu Prominence-I LC-2030 Plus equipped with HPLC and a photodiode array (PDA) detector. The mobile phase consisted of a gradient elution of 2:8, water: methanol, and a continuous flow rate of 1 mL/min in an RP-C18 column (5.0 µ particle sizes, 4.6 mm internal diameter, and 250 mm length) with different λmax of 310 and 320 nm, respectively, at 40 °C throughout the experiment. The column was washed using an elution solvent (water: methanol = 50:50) after each run, and the final output was analyzed using WinNonlin version 1.5.3 software.

[5] = system: IL-6, STAT-3, Bax, Bcl-2, Cyt-C, Caspase-9, and Caspase-3; assay: Western blot analysis of lung samples of EC-induced LC rats; type: in vivo, albino Wistar rats; conditions: 10 mg/kg p.o. for 15 days; for Expression of IL-6, STAT-3, and Bcl-2 / Expression of caspases (Caspase-3 and Caspase-9): vs CC group
Description: as §1
Protein expression levels of IL-6 (pro-inflammatory), STAT-3 (pro-inflammatory), Bax (pro-apoptotic), Bcl-2 (anti-apoptotic), Cyt-C (pro-apoptotic), Caspase-9, and Caspase-3 (pro-apoptotic/executor caspase) were assessed by immunoblotting. Proteins were electrophoresed on sodium dodecyl sulphate polyacrylamide gel (SDS-PAGE) and probed to detect molecules of interest in the mixture. The membrane was developed with enhanced chemiluminescence ECL, and images were obtained using Chemidoc XRS+ (Bio-rad).

[6] = Homo sapiens, A549 cell line, unit inferred, read-out: GI50 value

COc1ccc2c(c1)CC1=C2N=C2SC=CN2C1c1cc(OC)c(OC)c(OC)c1 (stereo not drawn) [Compound 9B, 8-methoxy-5-(3,4,5-trimethoxyphenyl)-5,6-dihydroindeno[1,2-d]thiazolo[3,2-a]pyrimidine]
Antioxidant markers SOD, CAT, GSH, and TBARs values (albino Wistar rats): no change | Toxic effect (albino Wistar rats): no toxic effect | LC50 ([1]; Homo sapiens, A549, A-549 cells, SRB assay, read-out: LC50 (concentration of drug causing 50% cell kill)): > 80 µg/mL | GI50 [1, 6]: < 20 µg/mL | Histopathological analysis of lung tissue (H&E) [2]: histopathological recovery of lung tissue architectures | Weight variation (change in body weight) [2]: 6.01 ± 1.08 gm | Serum lipid profile (TC, TG, LDL, VLDL, HDL) [2]: restored the alteration of the lipid profile | Oxidative changes (SOD, GSH, ProC, TBARs) [2]: restoring the altered levels of SOD, GSH, ProC, and TBARs | Levels of cytokine IL-1β, IL-2, IL-6, and IL-10 [3]: significantly decreased | AUC(0-inf) [4]: 288 µg·h/mL | Cmax [4]: 30800 ± 1590 ng/mL | MRT [4]: 10.6 ± 0.99 h | Tmax [4]: 4 h | half-life [4]: 7.95 h | AUMC [4]: 3028.82 µg.h^2/ mL | Expression of IL-6, STAT-3, and Bcl-2 [5]: decreased | Expression of caspases (Caspase-3 and Caspase-9) [5]: increased

Clc1ccc(C2C3=C(N=C4SC=CN42)c2ccccc2C3)cc1 (stereo not drawn) [Compound 12B, 5-(4-chlorophenyl)-5,6-dihydroindeno[1,2-d]thiazolo[3,2-a]pyrimidine]
Antioxidant markers SOD, CAT, GSH, and TBARs values (albino Wistar rats): no change | Toxic effect (albino Wistar rats): no toxic effect | GI50 [1, 6]: < 10 µg/mL | Histopathological analysis of lung tissue (H&E) [2]: histopathological recovery of lung tissue architectures | Weight variation (change in body weight) [2]: 17.52 ± 1.33 gm | Serum lipid profile (TC, TG, LDL, VLDL, HDL) [2]: restored the alteration of the lipid profile | Oxidative changes (SOD, GSH, ProC, TBARs) [2]: restoring the altered levels of SOD, GSH, ProC, and TBARs | Levels of cytokine IL-1β, IL-2, IL-6, and IL-10 [3]: significantly decreased | AUC(0-inf) [4]: 436 ± 8.59 µg·h/mL | Cmax [4]: 40200 ± 2060 ng/mL | MRT [4]: 10.4 ± 1.08 h | Tmax [4]: 4 h | half-life [4]: 11.5 h | AUMC [4]: 4557.60 µg.h^2/ mL | Biological availability (in words) ([4]; rat, compared with 9B): good biological availability as compared to 9B | Expression of Bax and Cyt-C ([5]; 12B compared with 9B): higher expression with 12B treatment than with 9B treatment | Expression of IL-6, STAT-3, and Bcl-2 [5]: decreased | Expression of caspases (Caspase-3 and Caspase-9) [5]: increased

O=c1[nH]cc(F)c(=O)[nH]1 [Compound 5-FU, 5-Fluorouracil, reference compound]
Histopathological analysis of lung tissue (H&E) [2]: histopathological recovery of lung tissue architectures | Weight variation (change in body weight) [2]: 7.21 ± 1.75 gm

COc1cccc2c1C(=O)c1c(O)c3c(c(O)c1C2=O)C[C@@](O)(C(=O)CO)C[C@@H]3O[C@H]1C[C@H](N)[C@H](O)[C@H](C)O1 [ADR, Adriamycin, reference compound]
TGI (concentration of drug causing total inhibition of cell growth) ([1]; A-549 cells, SRB assay): <10 µg/mL | GI50 ([1]; Homo sapiens, A549, A-549 cells, SRB assay, read-out: GI50 (concentration of drug causing 50% inhibition of cell growth)): < 10 µg/mL

From paper PMC11201866, “Antiproliferative effect of indeno[1,2-d]thiazolo[3,2-a]pyrimidine analogues on IL-6 mediated STAT3 and role of the apoptotic pathway in albino Wistar rats of ethyl carbamate-induced lung carcinoma: In-silico, In-vitro, and In-vivo study” (Cancer Cell International, 2024)
